Test results taken from ChEMBL document CHEMBL1201862, “PubChem BioAssay data set” (2004).
The source made the active and inactive calls.

How the values were obtained:
[1] = target: T1, Estrogen receptor (Homo sapiens, UniProt P03372); assay: ERα coactivator recruitment enhancers – biochemical, TR-FRET, ERα LBD, dose response (AID 737)
T1 sequence (P03372 whole entry): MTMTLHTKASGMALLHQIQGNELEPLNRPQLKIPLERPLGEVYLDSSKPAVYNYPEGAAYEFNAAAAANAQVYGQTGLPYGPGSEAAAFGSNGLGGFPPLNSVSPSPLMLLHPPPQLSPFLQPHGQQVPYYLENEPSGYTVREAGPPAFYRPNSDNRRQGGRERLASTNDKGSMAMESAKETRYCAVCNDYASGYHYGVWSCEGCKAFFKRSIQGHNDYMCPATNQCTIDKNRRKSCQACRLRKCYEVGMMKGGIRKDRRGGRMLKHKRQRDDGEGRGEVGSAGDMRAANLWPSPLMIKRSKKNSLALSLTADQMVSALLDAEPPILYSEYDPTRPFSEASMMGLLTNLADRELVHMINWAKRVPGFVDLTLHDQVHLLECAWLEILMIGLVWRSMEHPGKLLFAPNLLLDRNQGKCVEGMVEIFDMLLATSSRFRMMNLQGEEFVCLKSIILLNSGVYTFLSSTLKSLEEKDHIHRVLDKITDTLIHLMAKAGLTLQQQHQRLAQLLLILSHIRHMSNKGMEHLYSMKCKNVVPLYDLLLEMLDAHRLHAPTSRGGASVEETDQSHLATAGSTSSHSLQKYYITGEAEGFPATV

[2] = target: Photoreceptor-specific nuclear receptor (Homo sapiens, UniProt Q9Y5X4); type: functional, cell-based;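 further: CHO-S cells with Gal4-NCOR and VP16-NR2E3 two-hybrid luciferase reporter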
Chain of Photoreceptor-specific nuclear receptor (Q9Y5X4 whole entry, the tested form may be a part): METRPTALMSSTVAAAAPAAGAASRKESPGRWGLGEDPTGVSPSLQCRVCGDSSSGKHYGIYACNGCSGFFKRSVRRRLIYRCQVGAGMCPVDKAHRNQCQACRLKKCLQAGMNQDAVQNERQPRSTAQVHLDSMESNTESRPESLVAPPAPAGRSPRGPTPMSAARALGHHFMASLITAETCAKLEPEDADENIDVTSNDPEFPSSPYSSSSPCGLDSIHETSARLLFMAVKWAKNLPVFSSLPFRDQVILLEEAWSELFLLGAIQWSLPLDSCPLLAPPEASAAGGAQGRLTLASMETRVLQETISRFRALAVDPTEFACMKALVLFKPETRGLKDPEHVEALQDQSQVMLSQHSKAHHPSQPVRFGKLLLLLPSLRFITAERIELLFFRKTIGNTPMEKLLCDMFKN

[3] = target: T1, Estrogen receptor; assay: blockers of SRC-3 recruitment to ERα – biochemical, ELISA, streptavidin-HRP readout, orthogonal assay, confirmation (AID 1079)
[4] = target: Melanin-concentrating hormone receptor 1 (Homo sapiens, UniProt Q99705); assay: Fluorescence-based counterscreen for antagonists of the G-protein coupled receptor 7 (GPR7): cell-based high throughput dose response assay to identify antagonists of the melanin-concentrating hormone receptor 1 (MCHR1).; type: functional
Chain of Melanin-concentrating hormone receptor 1 (Q99705 whole entry): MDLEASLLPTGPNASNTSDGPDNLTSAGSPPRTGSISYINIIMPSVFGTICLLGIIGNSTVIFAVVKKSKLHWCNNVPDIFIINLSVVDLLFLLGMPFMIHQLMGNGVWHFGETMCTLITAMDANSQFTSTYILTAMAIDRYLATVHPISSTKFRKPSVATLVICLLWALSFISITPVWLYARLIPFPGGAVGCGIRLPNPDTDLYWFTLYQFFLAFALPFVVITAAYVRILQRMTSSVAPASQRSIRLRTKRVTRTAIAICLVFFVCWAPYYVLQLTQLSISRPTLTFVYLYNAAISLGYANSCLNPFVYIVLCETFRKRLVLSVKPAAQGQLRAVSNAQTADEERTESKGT

[5] = target: RNA-editing ligase 1, mitochondrial (Trypanosoma brucei brucei, UniProt P86926); assay: inhibition of trypanosome RNA editing ligase – biochemical, fluorescence, Trypanosoma brucei, dose response (AID 1117295); type: functional
Chain of RNA-editing ligase 1, mitochondrial (P86926 whole entry): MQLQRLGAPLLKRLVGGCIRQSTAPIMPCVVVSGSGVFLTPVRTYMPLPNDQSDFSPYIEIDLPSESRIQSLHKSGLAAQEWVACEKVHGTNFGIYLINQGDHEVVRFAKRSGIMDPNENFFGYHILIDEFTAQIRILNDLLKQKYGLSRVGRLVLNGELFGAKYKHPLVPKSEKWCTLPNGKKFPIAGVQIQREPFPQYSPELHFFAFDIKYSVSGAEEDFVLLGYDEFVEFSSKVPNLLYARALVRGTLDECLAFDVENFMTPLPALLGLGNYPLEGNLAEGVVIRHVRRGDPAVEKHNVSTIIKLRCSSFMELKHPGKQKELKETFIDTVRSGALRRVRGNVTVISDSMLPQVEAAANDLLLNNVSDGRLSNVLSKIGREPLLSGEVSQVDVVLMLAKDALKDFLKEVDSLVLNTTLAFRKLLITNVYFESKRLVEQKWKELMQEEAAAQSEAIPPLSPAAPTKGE

[6] = target: T2, Alkaline phosphatase, tissue-nonspecific isozyme (Homo sapiens, UniProt P05186)
T2 sequence (P05186 whole entry): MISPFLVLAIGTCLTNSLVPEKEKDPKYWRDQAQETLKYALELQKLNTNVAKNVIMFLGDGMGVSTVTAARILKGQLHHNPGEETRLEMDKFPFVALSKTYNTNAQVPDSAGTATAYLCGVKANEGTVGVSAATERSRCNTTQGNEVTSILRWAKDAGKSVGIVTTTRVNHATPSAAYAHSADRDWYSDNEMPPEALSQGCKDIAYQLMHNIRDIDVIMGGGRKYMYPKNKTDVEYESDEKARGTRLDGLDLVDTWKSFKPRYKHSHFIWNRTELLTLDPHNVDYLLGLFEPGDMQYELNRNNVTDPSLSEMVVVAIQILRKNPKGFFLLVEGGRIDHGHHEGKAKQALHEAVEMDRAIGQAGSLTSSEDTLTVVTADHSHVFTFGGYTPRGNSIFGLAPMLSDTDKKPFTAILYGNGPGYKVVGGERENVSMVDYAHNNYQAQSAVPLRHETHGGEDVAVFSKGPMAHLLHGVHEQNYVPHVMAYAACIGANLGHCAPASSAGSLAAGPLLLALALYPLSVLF

[7] = target: Cytochrome P450 3A4 (Homo sapiens, UniProt P08684); settings: Potency;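 further: confirmatory qHTS run detecting inhibitors and substrates of CYP3A4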
Chain of Cytochrome P450 3A4 (P08684 whole entry): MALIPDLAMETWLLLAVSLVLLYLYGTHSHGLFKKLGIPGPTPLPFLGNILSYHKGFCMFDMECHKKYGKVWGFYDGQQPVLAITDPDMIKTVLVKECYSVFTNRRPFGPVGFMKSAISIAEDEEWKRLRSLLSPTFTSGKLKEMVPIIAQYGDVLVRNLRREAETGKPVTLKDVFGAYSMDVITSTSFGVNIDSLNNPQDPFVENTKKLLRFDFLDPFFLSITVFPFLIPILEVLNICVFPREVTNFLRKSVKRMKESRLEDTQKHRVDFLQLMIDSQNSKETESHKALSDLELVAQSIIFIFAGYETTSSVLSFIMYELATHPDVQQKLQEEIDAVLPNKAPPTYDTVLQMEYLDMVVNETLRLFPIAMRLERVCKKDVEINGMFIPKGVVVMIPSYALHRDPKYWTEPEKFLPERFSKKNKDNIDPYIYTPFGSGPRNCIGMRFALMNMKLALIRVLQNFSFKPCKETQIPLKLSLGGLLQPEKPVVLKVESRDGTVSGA

[8] = target: Cytochrome P450 2C9 (Homo sapiens, UniProt P11712); settings: Potency
Chain of Cytochrome P450 2C9 (P11712 whole entry): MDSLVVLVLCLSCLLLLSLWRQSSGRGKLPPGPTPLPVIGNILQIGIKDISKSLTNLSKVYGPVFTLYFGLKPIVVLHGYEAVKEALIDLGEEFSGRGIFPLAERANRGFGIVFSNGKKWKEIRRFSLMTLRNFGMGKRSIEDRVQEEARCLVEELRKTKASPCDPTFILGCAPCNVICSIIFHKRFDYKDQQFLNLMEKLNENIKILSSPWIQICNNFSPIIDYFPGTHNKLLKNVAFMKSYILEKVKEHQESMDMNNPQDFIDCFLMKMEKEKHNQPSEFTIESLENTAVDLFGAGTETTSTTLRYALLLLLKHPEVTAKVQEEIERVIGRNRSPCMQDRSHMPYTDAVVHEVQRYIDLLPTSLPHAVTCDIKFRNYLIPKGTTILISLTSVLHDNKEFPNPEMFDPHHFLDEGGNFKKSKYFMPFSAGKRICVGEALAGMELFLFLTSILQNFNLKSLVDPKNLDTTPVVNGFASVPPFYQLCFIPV

[9] = target: T3, Heat shock 70 kDa protein 1A (Homo sapiens, UniProt P0DMV8); assay: small-molecule inhibition of Hsp70 – biochemical, TR-FRET (AID 786)
T3 sequence (P0DMV8 whole entry): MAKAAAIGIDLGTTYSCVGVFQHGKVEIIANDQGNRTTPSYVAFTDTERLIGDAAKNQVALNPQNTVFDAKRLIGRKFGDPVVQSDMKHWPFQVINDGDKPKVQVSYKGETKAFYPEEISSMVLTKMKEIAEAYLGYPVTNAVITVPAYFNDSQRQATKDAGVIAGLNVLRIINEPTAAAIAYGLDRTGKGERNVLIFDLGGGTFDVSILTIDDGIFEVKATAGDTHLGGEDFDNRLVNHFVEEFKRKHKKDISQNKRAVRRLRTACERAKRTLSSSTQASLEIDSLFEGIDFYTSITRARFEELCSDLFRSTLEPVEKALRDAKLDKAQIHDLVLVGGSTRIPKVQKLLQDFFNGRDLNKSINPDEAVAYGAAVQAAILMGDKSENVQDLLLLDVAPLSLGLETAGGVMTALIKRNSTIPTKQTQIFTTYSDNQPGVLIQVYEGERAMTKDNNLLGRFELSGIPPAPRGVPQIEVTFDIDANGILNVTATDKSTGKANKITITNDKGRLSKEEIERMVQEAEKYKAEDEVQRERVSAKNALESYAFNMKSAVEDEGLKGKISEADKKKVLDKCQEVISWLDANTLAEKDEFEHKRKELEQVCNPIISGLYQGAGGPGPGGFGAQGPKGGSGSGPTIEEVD

[10] = target: T4, Bcl-2-like protein 10 (Homo sapiens, UniProt Q9HD36); assay: Bcl-B/TR3 peptide binding disruption – biochemical, fluorescence polarization, FITC-TR3 peptide, selectivity assay for Bfl-1 inhibitor project, primary screen (AID 748);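 further: fluorescence polarization from a fluorescein-labelled TR3 peptide binding purified Bcl-B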
T4 sequence (Q9HD36 whole entry): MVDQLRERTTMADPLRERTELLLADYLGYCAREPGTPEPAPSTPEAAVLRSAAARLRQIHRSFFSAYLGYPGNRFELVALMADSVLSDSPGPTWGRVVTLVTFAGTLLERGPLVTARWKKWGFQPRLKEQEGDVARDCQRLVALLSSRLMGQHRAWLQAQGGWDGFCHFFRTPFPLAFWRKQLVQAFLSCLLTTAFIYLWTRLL

[11] = target: T5, Bcl-2-related protein A1 (Mus musculus, UniProt Q07440); assay: displacement of Bid BH3 peptide from Bfl-1 – biochemical, fluorescence polarization, FITC-Bid, mouse, primary screen (AID 432)
T5 sequence (Q07440 whole entry): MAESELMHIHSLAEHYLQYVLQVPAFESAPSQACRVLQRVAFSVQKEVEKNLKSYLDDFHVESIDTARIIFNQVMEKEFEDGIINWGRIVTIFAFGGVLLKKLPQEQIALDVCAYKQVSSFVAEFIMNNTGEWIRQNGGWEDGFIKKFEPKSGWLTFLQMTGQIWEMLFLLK

[12] = target: T3, Heat shock 70 kDa protein 1A; assay: small molecules displacing fluorescent ligand from Hsp70 – biochemical, fluorescence polarization, primary screen (AID 583)
[13] = target: Mothers against decapentaplegic homolog 3 (Homo sapiens, UniProt P84022); assay: inhibitors of SMAD-driven TGF-beta signaling – dose response (AID 715); type: functional
Chain of Mothers against decapentaplegic homolog 3 (P84022 whole entry): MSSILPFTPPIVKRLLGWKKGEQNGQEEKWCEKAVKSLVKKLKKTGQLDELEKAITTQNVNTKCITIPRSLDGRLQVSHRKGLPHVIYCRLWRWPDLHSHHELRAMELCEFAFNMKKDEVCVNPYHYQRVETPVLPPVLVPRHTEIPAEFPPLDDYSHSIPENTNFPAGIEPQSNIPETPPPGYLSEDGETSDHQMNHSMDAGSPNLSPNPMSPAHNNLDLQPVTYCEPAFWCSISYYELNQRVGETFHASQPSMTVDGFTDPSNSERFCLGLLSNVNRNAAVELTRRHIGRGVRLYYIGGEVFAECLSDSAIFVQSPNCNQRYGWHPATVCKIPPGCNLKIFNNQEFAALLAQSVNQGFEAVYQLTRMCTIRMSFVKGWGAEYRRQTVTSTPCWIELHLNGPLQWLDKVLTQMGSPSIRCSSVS

[14] = target: T5, Bcl-2-related protein A1; assay: small-molecule antagonists of Bfl-1/BH3 interaction – biochemical, TR-FRET, mouse Bfl-1, confirmation (AID 621);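 further: TR-FRET binding of GST-Bfl-1 to FITC-labelled Bid peptide via terbium antibody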
[15] = target: Estrogen receptor beta (Homo sapiens, UniProt Q92731); assay: blockers of SRC-3 recruitment to ERβ – biochemical, ELISA, streptavidin-HRP readout, orthogonal assay, confirmation (AID 1060)
Chain of Estrogen receptor beta (Q92731 whole entry): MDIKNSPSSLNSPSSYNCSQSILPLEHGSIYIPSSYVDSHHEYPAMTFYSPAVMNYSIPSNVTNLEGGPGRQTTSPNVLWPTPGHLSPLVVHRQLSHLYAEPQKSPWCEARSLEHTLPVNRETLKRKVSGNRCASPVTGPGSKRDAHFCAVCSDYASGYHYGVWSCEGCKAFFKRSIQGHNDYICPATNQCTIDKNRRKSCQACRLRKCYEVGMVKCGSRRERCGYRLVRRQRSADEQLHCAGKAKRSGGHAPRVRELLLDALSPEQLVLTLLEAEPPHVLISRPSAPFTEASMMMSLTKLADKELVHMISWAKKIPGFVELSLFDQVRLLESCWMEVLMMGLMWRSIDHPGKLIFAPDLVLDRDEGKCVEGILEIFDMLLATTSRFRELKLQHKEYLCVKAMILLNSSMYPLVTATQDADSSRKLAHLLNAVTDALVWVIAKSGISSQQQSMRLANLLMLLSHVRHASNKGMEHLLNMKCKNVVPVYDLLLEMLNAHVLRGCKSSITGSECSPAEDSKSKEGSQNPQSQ

[16] = Luminescence-based counterscreen assay for KLF5 inhibitors: dose response cell-based high throughput screening assay to identify cytotoxic compounds using the IEC-6 intestinal epithelial cell line. [Related pubchem assays: 1700 (Primary screen.), 1834 (Confirmation screen.), 1858 (Summary AID.), 1905 (Counterscreen.)]; type: functional
[17] = HEK-293T cell viability reduction – luminescence, B-cell screen hits, cytotoxicity control for BCR NF-kB inhibitor project, dose response (AID 489021); type: functional, cell-based;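 further: HEK-293T cells carrying an NF-kB luciferase reporter; cells exposed to compound for about 14 hours before viability readout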
[18] = mitochondrial function rescue without frataxin homolog – Friedreich's ataxia, plus single-dose screen, dose response (AID 1465); type: functional;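 further: yeast depleted of Yfh1p frataxin homolog grown on glycerol needing respiration; WST-1 tetrazolium dye reduction as measure of cellular dehydrogenase metabolic activity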
[19] = target: Nonstructural protein 1 (Influenza A virus, UniProt Q194T2); type: functional, Influenza A virus (A/California/07/2009(H1N1))
Chain of Nonstructural protein 1 (Q194T2 whole entry): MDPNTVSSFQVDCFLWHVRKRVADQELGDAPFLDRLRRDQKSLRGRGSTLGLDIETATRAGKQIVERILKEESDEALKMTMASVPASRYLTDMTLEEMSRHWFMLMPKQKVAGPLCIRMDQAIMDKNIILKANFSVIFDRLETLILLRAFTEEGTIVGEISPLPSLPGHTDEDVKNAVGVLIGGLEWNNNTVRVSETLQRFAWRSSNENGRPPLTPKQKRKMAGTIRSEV

With `Cc1ccc(NC(=O)CSc2nnnn2-c2ccc3c(c2)OCO3)cc1C` the EC50 [1] was 8.47 µM (active) and the IC50 [2] was 0.581 µM (active).
With `O=C(CCCn1c(=S)[nH]c2ccccc2c1=O)N1CCN(c2ccccc2O)CC1` the IC50 [3] was 0.07 µM (not active).
In the case of `COCCNC1=N[C@@H](c2cccc(C(F)(F)F)c2)C(C(=O)OC)=C(C)N1Cc1ccccc1`, the IC50 [4] is reported as 14.7 µM (not active) and the IC50 [5] is reported as > 96.6 µM (inactive).
For `Cc1ccc(N(C(=O)c2ccn[nH]2)C(C(=O)NC2CCCC2)c2cccs2)cc1` (centres undefined), the EC50 [6] was > 100 µM (not active).
In the case of `OC1c2ccccc2-c2nc3ccccc3cc21` (centres undefined), the AC50 [7] is reported as 25.1 µM (inconclusive) and the AC50 [8] is reported as 25.1 µM (inconclusive).
With `COc1cccc(C(=O)NC2CC3CCCC(C2)N3CC(=O)Nc2ccccc2)c1` (centres undefined) the IC50 [9] was 11.4 µM (active), the IC50 [10] was 73.6 µM (inactive) and the IC50 [11] was > 100 µM (not active). The IC50 [12] was 45.4 µM (active), the IC50 [13] was 9.46 µM (active) and the IC50 [14] was > 100 µM (not active). For the same compound, the IC50 [15] was 44.6 µM (not active).
In the case of `Cc1ccc(/C=C2/SC(=S)N(CCCC(=O)Nc3ccc(O)cc3)C2=O)cc1`, the IC50 [16] is reported as 14.1 µM (not active) and the IC50 [17] is reported as > 80 µM (inactive).
In the case of `CC(C)(C)C1=CC(=O)C(N2CCOCC2)=CC1=O`, the EC50 [18] is reported as > 100 µM (active) and the IC50 [19] is reported as > 100 µM (active).
